This passage reports EC50 and Activity results from ChEMBL document CHEMBL1147379, “Antineoplastic agents, 256. Cell growth inhibitory isocarbostyrils from Hymenocallis” (1993).

The test system of one assay is P388. The experiment in a line: Growth inhibition of mouse P388 cells. The format is functional. To be noted: read-out: ED50 (the source's name).
The test system of a further assay is M5076. As to the kind of experiment: Growth inhibition of mouse M5076 cells. The assay is classed as functional, cell-based.

Molecules are shown by their SMILES. ≈ marks a conversion by molar mass, not a printed value. Calls of active or inactive are those of the source. The rule behind the calls is not given here.

For `O=C1N[C@H]2[C@H](O)[C@H](O)[C@@H](O)[C@H](O)[C@@H]2c2cc3c(c(O)c21)OCO3` [PANCRATISTATIN], the EC50 with P388 was 0.01 µg/mL (≈ 0.0307 µM). Further, in the assay on M5076, the result was Active.
